Patent US7943770B2, “Fused quinoline derivative and use thereof” (Takeda Pharmaceutical Company Limited, priority 2004, dated 2011)

Target: T1, hNK2 receptor (Homo sapiens, UniProt P21452)
T1 construct: host or cells: CHO cells
T1 sequence (P21452 1-398): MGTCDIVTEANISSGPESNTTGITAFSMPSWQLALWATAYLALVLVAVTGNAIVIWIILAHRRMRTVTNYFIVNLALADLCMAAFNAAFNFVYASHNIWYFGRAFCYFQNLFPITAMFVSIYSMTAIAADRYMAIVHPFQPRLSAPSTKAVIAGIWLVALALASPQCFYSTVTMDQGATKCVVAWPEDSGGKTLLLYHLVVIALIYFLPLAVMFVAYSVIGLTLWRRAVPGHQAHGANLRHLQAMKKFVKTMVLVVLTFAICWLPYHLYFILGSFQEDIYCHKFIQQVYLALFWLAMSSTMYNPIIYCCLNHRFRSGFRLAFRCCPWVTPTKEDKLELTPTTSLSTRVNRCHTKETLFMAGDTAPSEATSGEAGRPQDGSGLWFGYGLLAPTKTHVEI
Assay: Radio-ligand ([125I]-NKA) receptor binding inhibitory activity using membrane fraction of hNK2 receptor-expressing CHO cell
Conditions: membrane fraction of hNK2 receptor-expressing CHO cells, 25° C., 30 min
Summary of the method: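 Membranes from hNK2-expressing CHO cells (20 μg/mL suspension) incubated with test compound and [125I]-NKA ([…] solution as added) in Tris-HCl pH 7.4 with BSA, protease inhibitors, 3 mM MnCl2, 25 °C, 30 min. Bound radioactivity by GF/C filtration and scintillation; inhibition expressed relative to specific binding (total minus unlabeled-NKA non-specific).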

Compound	IC50 [nM]
CCCCNC(=O)N[C@@H]1CCCC[C@@H]1C(=O)N1CC[C@@H]2[C@H](c3ncc[nH]3)Nc3ccccc3[C@@H]21 [Example 299, N-Butyl-N′-((1R,2S)-2-{[(3aR,4R,9bR)-4-(1H-imidazol-2-yl)-2,3,3a,4,5,9b-hexahydro-1H-pyrrolo[3,2-c]quinolin-1-yl]carbonyl}cyclohexyl)urea]	< 1
O=C(Nc1ccccc1)N[C@@H]1CCCC[C@@H]1C(=O)N1CC[C@@H]2[C@H](c3ccccc3)Nc3ccccc3[C@@H]21 [Example 135, N-phenyl-N′-((1R,2S)-2-{[(3aR,4R,9bR)-4-phenyl-2,3,3a,4,5,9b-hexahydro-1H-pyrrolo[3,2-c]quinolin-1-yl]carbonyl}cyclohexyl)urea]	< 1
N#Cc1ccc(NC(=O)N[C@@H]2CCCC[C@@H]2C(=O)N2CC[C@@H]3[C@H](c4ccccc4)Nc4ccccc4[C@@H]32)cc1 [Example 147, N-(4-Cyanophenyl)-N′-((1R,2S)-2-{[(3aR,4R,9bR)-4-phenyl-2,3,3a,4,5,9b-hexahydro-1H-pyrrolo[3,2-c]quinolin-1-yl]carbonyl}cyclohexyl)urea]	< 10
COC[C@@H]1Nc2ccccc2[C@H]2[C@@H]1CCN2C(=O)[C@H]1CCCC[C@H]1NC(=O)Nc1ccccc1 [Example 204, N-((1R,2S)-2-{[(3aR,4R,9bR)-4-(Methoxymethyl)-2,3,3a,4,5,9b-hexahydro-1H-pyrrolo[3,2-c]quinolin-1-yl]carbonyl}cyclohexyl)-N′-phenylurea]	< 1
O=C(/C=C/c1ncc[nH]1)N[C@@H]1CCCC[C@@H]1C(=O)N1CC[C@@H]2[C@H](c3ccccc3)Nc3ccccc3[C@@H]21 [Example 134, (2E)-3-(1H-Imidazol-2-yl)-N-((1R,2S)-2-{[(3aR,4R,9bR)-4-phenyl-2,3,3a,4,5,9b-hexahydro-1H-pyrrolo[3,2-c]quinolin-1-yl]carbonyl}cyclohexyl)acrylamide]	< 1
COC[C@@H]1Nc2ccccc2[C@H]2[C@@H]1CCN2C(=O)[C@H]1CCCC[C@H]1NC(=O)c1ccc(F)c(F)c1 [Example 212, 3,4-Difluoro-N-((1R,2S)-2-{[(3aR,4R,9bR)-4-(methoxymethyl)-2,3,3a,4,5,9b-hexahydro-1H-pyrrolo[3,2-c]quinolin-1-yl]carbonyl}cyclohexyl)benzamide]	< 1
COC[C@@H]1Nc2ccccc2[C@H]2[C@@H]1CCN2C(=O)[C@H]1CCCC[C@H]1NC(=O)c1ccccc1C#N [Example 232, 2-Cyano-N-((1R,2S)-2-{[(3aR,4R,9bR)-4-(methoxymethyl)-2,3,3a,4,5,9b-hexahydro-1H-pyrrolo[3,2-c]quinolin-1-yl]carbonyl}cyclohexyl)benzamide]	< 10
COC[C@@H]1Nc2ccccc2[C@H]2[C@@H]1CCN2C(=O)[C@H]1CCCC[C@H]1NC(=O)c1ccc(C(F)(F)F)cc1 [Example 210, N-((1R,2S)-2-{[(3aR,4R,9bR)-4-(Methoxymethyl)-2,3,3a,4,5,9b-hexahydro-1H-pyrrolo[3,2-c]quinolin-1-yl]carbonyl}cyclohexyl)-4-(trifluoromethyl)benzamide]	< 1
COC[C@@H]1Nc2ccccc2[C@H]2[C@@H]1CCN2C(=O)[C@H]1CCCC[C@H]1NC(=O)c1ccc2c(c1)nc(C)n2C [Example 276, N-((1R,2S)-2-{[(3aR,4R,9bR)-4-(Methoxymethyl)-2,3,3a,4,5,9b-hexahydro-1H-pyrrolo[3,2-c]quinolin-1-yl]carbonyl}cyclohexyl)-1,2-dimethyl-1H-benzimidazole-5-carboxamide]	< 10
COCCN(C)c1ccc(C(=O)N[C@@H]2CCCC[C@@H]2C(=O)N2CC[C@@H]3[C@H](COC)Nc4ccccc4[C@@H]32)cc1 [Example 273, 4-[(2-Methoxyethyl)(methyl)amino]-N-((1R,2S)-2-{[(3aR,4R,9bR)-4-(methoxymethyl)-2,3,3a,4,5,9b-hexahydro-1H-pyrrolo[3,2-c]quinolin-1-yl]carbonyl}cyclohexyl)benzamide]	< 1
O=C(N[C@@H]1CCCC[C@@H]1C(=O)N1CC[C@@H]2[C@H](c3ccccc3)Nc3ccccc3[C@@H]21)c1ccc(CO)cc1 [Example 120, 4-(Hydroxymethyl)-N-((1R,2S)-2-{[(3aR,4R,9bR)-4-phenyl-2,3,3a,4,5,9b-hexahydro-1H-pyrrolo[3,2-c]quinolin-1-yl]carbonyl}cyclohexyl)benzamide]	< 10
O=C(N[C@@H]1CCCC[C@@H]1C(=O)N1CC[C@@H]2[C@H](c3ccccc3)Nc3ccccc3[C@@H]21)c1ccncc1 [Example 91, N-((1R,2S)-2-{[(3aR,4R,9bR)-4-Phenyl-2,3,3a,4,5,9b-hexahydro-1H-pyrrolo[3,2-c]quinolin-1-yl]carbonyl}cyclohexyl)isonicotinamide]	< 10
COC[C@@H]1Nc2ccccc2[C@H]2[C@@H]1CCN2C(=O)[C@H]1CCCC[C@H]1NC(=O)c1ccc(N2CCSCC2)cc1 [Example 291, N-((1R,2S)-2-{[(3aR,4R,9bR)-4-(Methoxymethyl)-2,3,3a,4,5,9b-hexahydro-1H-pyrrolo[3,2-c]quinolin-1-yl]carbonyl}cyclohexyl)-4-thiomorpholin-4-ylbenzamide]	< 1
CCCCCCNC(=O)N[C@@H]1CCCC[C@@H]1C(=O)N1CC[C@@H]2[C@H](c3ccccc3)Nc3ccccc3[C@@H]21 [Example 154, N-Hexyl-N′-((1R,2S)-2-{[(3aR,4R,9bR)-4-phenyl-2,3,3a,4,5,9b-hexahydro-1H-pyrrolo[3,2-c]quinolin-1-yl]carbonyl}cyclohexyl)urea]	< 1
O=C(CCc1ccccc1)N[C@@H]1CCCC[C@@H]1C(=O)N1CC[C@@H]2[C@H](c3ccccc3)Nc3ccccc3[C@@H]21 [Example 103, 3-Phenyl-N-((1R,2S)-2-{[(3aR,4R,9bR)-4-phenyl-2,3,3a,4,5,9b-hexahydro-1H-pyrrolo[3,2-c]quinolin-1-yl]carbonyl}cyclohexyl)propanamide]	< 1
COC[C@@H]1Nc2ccccc2[C@H]2[C@@H]1CCN2C(=O)[C@H]1CCCC[C@H]1NC(=O)c1ccc(-n2ccnc2)cc1 [Example 250, 4-(1H-Imidazol-1-yl)-N-((1R,2S)-2-{[(3aR,4R,9bR)-4-(methoxymethyl)-2,3,3a,4,5,9b-hexahydro-1H-pyrrolo[3,2-c]quinolin-1-yl]carbonyl}cyclohexyl)benzamide]	< 1
O=C(N[C@@H]1CCCC[C@@H]1C(=O)N1CC[C@@H]2[C@H](c3ccccc3)Nc3ccccc3[C@@H]21)c1ccc(F)cc1 [Example 92, 4-Fluoro-N-((1R,2S)-2-{[(3aR,4R,9bR)-4-phenyl-2,3,3a,4,5,9b-hexahydro-1H-pyrrolo[3,2-c]quinolin-1-yl]carbonyl}cyclohexyl)benzamide]	< 10
Cn1cccc1[C@@H]1Nc2ccccc2[C@H]2[C@@H]1CCN2C(=O)[C@H]1CCCC[C@H]1NC(=O)c1ccccc1 (relative stereo) [Example 23, N-((1R,2S)-2-{[(3aR*,4R*,9bR*)-4-(1-Methyl-1H-pyrrol-2-yl)-2,3,3a,4,5,9b-hexahydro-1H-pyrrolo[3,2-c]quinolin-1-yl]carbonyl}cyclohexyl)benzamide]	< 10
CCNC(=O)N[C@@H]1CCCC[C@@H]1C(=O)N1CC[C@@H]2[C@H](C3CC3)Nc3ccccc3[C@@H]21 [Example 185, N-((1R,2S)-2-{[(3aR,4S,9bR)-4-Cyclopropyl-2,3,3a,4,5,9b-hexahydro-1H-pyrrolo[3,2-c]quinolin-1-yl]carbonyl}cyclohexyl)-N′-ethylurea]	< 10
COC[C@@H]1Nc2ccccc2[C@H]2[C@@H]1CCN2C(=O)[C@H]1CCCC[C@H]1NC(=O)Nc1ccc(-n2cccn2)cc1 [Example 284, N-((1R,2S)-2-{[(3aR,4R,9bR)-4-(methoxymethyl)-2,3,3a,4,5,9b-hexahydro-1H-pyrrolo[3,2-c]quinolin-1-yl]carbonyl}cyclohexyl)-N′-[4-(1H-pyrazol-1-yl)phenyl]urea]	< 1
Cn1ccnc1C(=O)N[C@@H]1CCCC[C@@H]1C(=O)N1CC[C@@H]2[C@H](c3ccccc3)Nc3ccccc3[C@@H]21 [Example 132, 1-Methyl-N-((1R,2S)-2-{[(3aR,4R,9bR)-4-phenyl-2,3,3a,4,5,9b-hexahydro-1H-pyrrolo[3,2-c]quinolin-1-yl]carbonyl}cyclohexyl)-1H-imidazole-2-carboxamide]	< 10
COC[C@@H]1Nc2ccccc2[C@H]2[C@@H]1CCN2C(=O)[C@H]1CCCC[C@H]1NC(=O)c1c[nH]c(-c2ccccc2)n1 [Example 280, N-((1R,2S)-2-{[(3aR,4R,9bR)-4-(Methoxymethyl)-2,3,3a,4,5,9b-hexahydro-1H-pyrrolo[3,2-c]quinolin-1-yl]carbonyl}cyclohexyl)-2-phenyl-1H-imidazole-4-carboxamide]	< 1
CC(=O)N[C@@H]1CCCC[C@@H]1C(=O)N1CC[C@@H]2[C@H](c3ccccc3)Nc3ccccc3[C@@H]21 [Example 85, N-((1R,25)-2-{[(3aR,4R,9bR)-4-Phenyl-2,3,3a,4,5,9b-hexahydro-1H-pyrrolo[3,2-c]quinolin-1-yl]carbonyl}cyclohexyl)acetamide]	< 10
COC[C@@H]1Nc2ccccc2[C@H]2[C@@H]1CCN2C(=O)[C@H]1CCCC[C@H]1NC(=O)c1ccc(-c2csc(C)n2)cc1 [Example 261, N-((1R,2S)-2-{[(3aR,4R,9bR)-4-(Methoxymethyl)-2,3,3a,4,5,9b-hexahydro-1H-pyrrolo[3,2-c]quinolin-1-yl]carbonyl}cyclohexyl)-4-(2-methyl-1,3-thiazol-4-yl)benzamide]	< 1
